{"source": "paper PMC4363092", "about": "(Journal of medicinal chemistry, 2014)", "key": {"human NPP1": {"target": "T1, human NPP1 (Homo sapiens, UniProt P22413)", "T1 sequence (P22413 1-925)": "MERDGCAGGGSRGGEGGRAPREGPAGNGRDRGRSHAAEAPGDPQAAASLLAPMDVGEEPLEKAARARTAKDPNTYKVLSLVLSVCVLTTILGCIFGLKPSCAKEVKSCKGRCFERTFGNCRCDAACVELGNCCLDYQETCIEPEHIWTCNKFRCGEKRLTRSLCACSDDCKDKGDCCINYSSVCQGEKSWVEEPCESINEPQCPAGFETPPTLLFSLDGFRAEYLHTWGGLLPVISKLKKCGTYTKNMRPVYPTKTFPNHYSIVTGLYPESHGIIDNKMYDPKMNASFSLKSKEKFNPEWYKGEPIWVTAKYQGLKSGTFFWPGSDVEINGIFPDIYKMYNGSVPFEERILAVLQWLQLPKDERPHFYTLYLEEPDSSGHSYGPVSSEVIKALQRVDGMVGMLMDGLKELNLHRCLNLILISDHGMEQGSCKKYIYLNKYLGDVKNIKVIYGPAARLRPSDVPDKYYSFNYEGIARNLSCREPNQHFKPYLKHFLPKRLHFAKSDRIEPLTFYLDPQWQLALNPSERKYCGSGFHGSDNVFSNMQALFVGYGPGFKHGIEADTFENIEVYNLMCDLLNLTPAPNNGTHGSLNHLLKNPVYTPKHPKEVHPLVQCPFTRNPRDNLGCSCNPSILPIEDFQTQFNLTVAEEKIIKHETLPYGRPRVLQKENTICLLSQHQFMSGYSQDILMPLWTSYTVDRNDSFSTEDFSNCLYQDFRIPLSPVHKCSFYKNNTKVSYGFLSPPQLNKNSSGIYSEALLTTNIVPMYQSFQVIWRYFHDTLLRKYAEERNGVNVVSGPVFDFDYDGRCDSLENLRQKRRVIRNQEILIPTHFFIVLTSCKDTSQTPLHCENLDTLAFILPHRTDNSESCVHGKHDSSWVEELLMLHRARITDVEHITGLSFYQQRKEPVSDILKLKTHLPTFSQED", "assay": "Inhibition of NPP1, ATP as substrate", "assay_type": "biochemical", "details": "analogue 100 μM, ATP 100 μM"}, "P2Y2 receptor": {"target": "P2Y2 receptor (Homo sapiens, UniProt P41231)", "sequence (P41231 whole entry)": "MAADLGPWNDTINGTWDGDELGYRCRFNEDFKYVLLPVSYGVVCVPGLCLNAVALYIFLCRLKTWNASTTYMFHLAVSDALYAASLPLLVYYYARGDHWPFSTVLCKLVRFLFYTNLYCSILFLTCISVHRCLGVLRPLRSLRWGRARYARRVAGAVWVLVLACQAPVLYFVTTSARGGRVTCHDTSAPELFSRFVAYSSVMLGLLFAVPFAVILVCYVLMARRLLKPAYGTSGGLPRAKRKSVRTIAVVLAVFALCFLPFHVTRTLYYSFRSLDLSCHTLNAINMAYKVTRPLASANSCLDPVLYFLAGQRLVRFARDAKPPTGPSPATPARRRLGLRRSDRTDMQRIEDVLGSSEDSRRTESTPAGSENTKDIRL", "assay": "[Ca2+]i response in 1321N1 astrocytoma cells expressing GFP-P2Y2 receptor", "assay_type": "cell-based", "details": "for agonist activity at P2Y2R: 100 μM; for inhibition of the typical response to UTP at P2Y2R: 1321N1 cells (data not shown)"}, "human NTPDase1": {"target": "T2, human NTPDase1 (Homo sapiens, UniProt P49961)", "T2 sequence (P49961 1-510)": "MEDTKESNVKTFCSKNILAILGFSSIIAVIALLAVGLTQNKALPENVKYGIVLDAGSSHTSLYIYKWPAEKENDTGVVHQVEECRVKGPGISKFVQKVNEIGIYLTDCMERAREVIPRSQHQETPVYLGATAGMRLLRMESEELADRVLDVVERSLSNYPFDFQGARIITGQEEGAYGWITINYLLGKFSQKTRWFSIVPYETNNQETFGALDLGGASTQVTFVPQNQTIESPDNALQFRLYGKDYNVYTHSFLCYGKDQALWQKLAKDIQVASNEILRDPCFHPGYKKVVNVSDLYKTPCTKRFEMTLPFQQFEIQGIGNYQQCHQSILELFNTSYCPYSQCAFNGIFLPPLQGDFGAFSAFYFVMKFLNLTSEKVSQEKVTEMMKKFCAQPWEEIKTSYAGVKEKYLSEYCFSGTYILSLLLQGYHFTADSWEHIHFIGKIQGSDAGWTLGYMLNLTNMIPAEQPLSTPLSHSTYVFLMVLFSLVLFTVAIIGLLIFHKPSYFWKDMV", "details": "analogue 100 μM as substrate; activity with 100 μM ATP set as 100%"}, "human NTPDase2": {"target": "T3, human NTPDase2 (Homo sapiens, UniProt Q9Y5L3)", "T3 sequence (Q9Y5L3 1-495)": "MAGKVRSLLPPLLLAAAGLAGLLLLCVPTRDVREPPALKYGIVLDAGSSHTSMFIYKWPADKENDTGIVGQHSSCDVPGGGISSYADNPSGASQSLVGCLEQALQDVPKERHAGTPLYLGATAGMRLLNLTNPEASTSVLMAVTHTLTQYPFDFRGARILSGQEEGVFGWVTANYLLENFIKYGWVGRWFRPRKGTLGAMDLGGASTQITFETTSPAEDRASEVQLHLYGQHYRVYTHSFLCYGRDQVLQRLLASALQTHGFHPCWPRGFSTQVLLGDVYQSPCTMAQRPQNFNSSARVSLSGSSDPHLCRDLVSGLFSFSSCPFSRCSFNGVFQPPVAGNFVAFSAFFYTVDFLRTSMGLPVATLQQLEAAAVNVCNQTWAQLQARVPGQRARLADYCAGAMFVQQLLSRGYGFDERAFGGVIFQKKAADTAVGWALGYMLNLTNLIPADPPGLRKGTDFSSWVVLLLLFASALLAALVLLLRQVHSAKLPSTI", "details": "analogue 100 μM as substrate; activity with 100 μM ATP set as 100%"}, "human NTPDase8": {"target": "T4, human NTPDase8 (Homo sapiens, UniProt Q5MY95)", "T4 sequence (Q5MY95 1-495)": "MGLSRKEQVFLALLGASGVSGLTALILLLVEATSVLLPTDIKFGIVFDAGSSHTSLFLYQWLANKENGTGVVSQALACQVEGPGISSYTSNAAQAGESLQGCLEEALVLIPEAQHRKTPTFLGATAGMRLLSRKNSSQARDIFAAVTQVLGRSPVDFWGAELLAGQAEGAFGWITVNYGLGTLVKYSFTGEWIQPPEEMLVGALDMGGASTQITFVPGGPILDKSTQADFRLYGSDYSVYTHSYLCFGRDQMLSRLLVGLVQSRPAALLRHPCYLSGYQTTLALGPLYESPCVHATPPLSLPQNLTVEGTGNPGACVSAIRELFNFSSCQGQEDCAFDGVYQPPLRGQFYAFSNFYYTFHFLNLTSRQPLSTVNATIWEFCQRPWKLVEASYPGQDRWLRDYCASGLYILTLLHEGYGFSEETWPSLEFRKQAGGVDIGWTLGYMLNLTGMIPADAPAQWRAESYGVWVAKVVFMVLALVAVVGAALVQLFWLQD", "details": "analogue 100 μM as substrate; activity with 100 μM ATP set as 100%"}}}
{"smiles": "Nc1ncnc2c1ncn2[C@@H]1O[C@H](COP(=O)(O)CP(=O)(O)OP(O)(O)=S)[C@@H](O)[C@H]1O", "note": "[compound 3]", "values": [{"measurement": "inhibition of ATP hydrolysis by NPP1", "setting": "human NPP1", "value": "about 90%"}, {"measurement": "agonist activity at P2Y2R", "setting": "P2Y2 receptor", "value": "no activity"}, {"measurement": "inhibition of the typical response to UTP at P2Y2R", "setting": "P2Y2 receptor", "value": "did not inhibit"}, {"measurement": "relative activity (%) ± SD of ATP hydrolysis, NTPDase1", "setting": "human NTPDase1", "value": "5.3 ± 0.2", "unit": "%"}, {"measurement": "relative activity (%) ± SD of ATP hydrolysis, NTPDase2", "setting": "human NTPDase2", "value": "4.7 ± 0.2", "unit": "%"}, {"measurement": "relative activity (%) ± SD of ATP hydrolysis, NTPDase8", "setting": "human NTPDase8", "value": "5.2 ± 0.2", "unit": "%"}]}
{"smiles": "Nc1ncnc2c1ncn2[C@@H]1O[C@H](CO[P@](O)(=S)OP(=O)(O)C(Cl)(Cl)P(=O)(O)O)[C@@H](O)[C@H]1O", "note": "[2a]", "values": [{"measurement": "inhibition of ATP hydrolysis by NPP1", "setting": "human NPP1", "value": "about 90%"}, {"measurement": "agonist activity at P2Y2R", "setting": "P2Y2 receptor", "value": "no activity"}, {"measurement": "inhibition of the typical response to UTP at P2Y2R", "setting": "P2Y2 receptor", "value": "did not inhibit"}, {"measurement": "relative activity (%) ± SD of ATP hydrolysis, NTPDase1", "setting": "human NTPDase1", "value": "5.3 ± 0.2", "unit": "%"}, {"measurement": "relative activity (%) ± SD of ATP hydrolysis, NTPDase2", "setting": "human NTPDase2", "value": "5.2 ± 0.1", "unit": "%"}, {"measurement": "relative activity (%) ± SD of ATP hydrolysis, NTPDase8", "setting": "human NTPDase8", "value": "4.3 ± 0.1", "unit": "%"}]}
